Test results: ChEMBL document CHEMBL4330117, “Synthesis, biological evaluation and molecular docking of benzimidazole grafted benzsulfamide-containing pyrazole ring derivatives as novel tubulin polymerization inhibitors” (Bioorg Med Chem, 2019)
Active and inactive are the calls of the source. The rule behind the calls is not given here.

Key:
MCF7 = experiment: Antiproliferative activity against human MCF7 cells after 24 hrs by MTT assay; format: functional, cell-based; conditions: MCF7, 24 h
A549 [1] = experiment: Cell cycle arrest in human A549 cells assessed as upregulation of p21 expression level after 24 hrs by Western blot analysis; format: functional, cell-based
A549 [2] = experiment: Cell cycle arrest in human A549 cells assessed as accumulation at G1 phase at 0.1 uM after 24 hrs by propidium iodide/RNase A staining-based flow cytometric analysis (reference value: 71.02%); format: functional
A549 [3] = experiment: Antiproliferative activity against human A549 cells after 24 hrs by MTT assay; format: functional, cell-based; conditions: A549, 24 h
Tubulin (Homo sapiens) [4] = biological target: T1, Tubulin (Homo sapiens) (UniProt P68371+Q9H4B7+P0DPH7+P68366+Q13509+Q71U36+P04350+Q3ZCM7+P07437+P68363+Q9BQE3+Q6PEY2+Q13885+Q9BVA1+Q9BUF5); experiment: Induction of microtubule disruption in human A549 cells assessed as cell rounding at 0.2 uM after 24 hrs by rhodamine and DAPI staining based immunofluorescence microscopic analysis
A549 [5] = experiment: Cell cycle arrest in human A549 cells assessed as accumulation at G1 phase at 0.3 uM after 24 hrs by propidium iodide/RNase A staining-based flow cytometric analysis (reference value: 71.02%); format: functional
A549 [6] = experiment: Induction of apoptosis in human A549 cells assessed as viable cells at 0.3 uM after 24 hrs by Annexin V-FITC/propidium iodide staining-based flow cytometric analysis (reference value: 82.8%); format: functional; conditions: A549, 24 h, read-out: Activity
[7] = Cytotoxicity against HEK293T cells after 24 hrs by MTT assay; format: cell-based, HEK-293T; conditions: human
A549 [8] = experiment: Induction of apoptosis in human A549 cells assessed as upregulation of cleaved caspase-3 level up to 0.5 uM after 24 hrs by Western blot analysis; format: functional, cell-based
A549 [9] = experiment: Induction of apoptosis in human A549 cells assessed as necrotic cells at 0.5 uM after 24 hrs by Annexin V-FITC/propidium iodide staining-based flow cytometric analysis (reference value: 10.8%); format: functional
A549 [10] = experiment: Induction of apoptosis in human A549 cells assessed as downregulation of Bcl2 level up to 0.5 uM after 24 hrs by Western blot analysis; format: functional, cell-based
A549 [11] = experiment: Cell cycle arrest in human A549 cells assessed as accumulation at G2/M phase at 0.5 uM after 24 hrs by propidium iodide/RNase A staining-based flow cytometric analysis (reference value: 17.62%); format: functional
A549 [12] = experiment: Induction of apoptosis in human A549 cells assessed as upregulation of cleaved PARP level up to 0.5 uM after 24 hrs by Western blot analysis; format: functional, cell-based
HepG2 = experiment: Antiproliferative activity against human HepG2 cells after 24 hrs by MTT assay; format: functional, cell-based; conditions: HepG2, 24 h
A549 [13] = experiment: Induction of apoptosis in human A549 cells assessed as upregulation of Bax level up to 0.5 uM after 24 hrs by Western blot analysis; format: functional, cell-based
Tubulin (Bos taurus) [14] = biological target: T2, Tubulin (Bos taurus) (UniProt Q6B856+Q862L2+Q862F3); experiment: Inhibition of [3H]colchicine binding to bovine brain tubulin at 5 uM
A549 [15] = experiment: Induction of apoptosis in human A549 cells assessed as viable cells at 0.1 uM after 24 hrs by Annexin V-FITC/propidium iodide staining-based flow cytometric analysis (reference value: 82.8%); format: functional; conditions: A549, 24 h, read-out: Activity
HeLa = experiment: Antiproliferative activity against human HeLa cells after 24 hrs by MTT assay; format: functional, cell-based
A549 [16] = experiment: Cell cycle arrest in human A549 cells assessed as accumulation at G2/M phase after 24 hrs by propidium iodide/RNase A staining-based flow cytometric analysis; format: functional
A549 [17] = experiment: Cell cycle arrest in human A549 cells assessed as accumulation at S phase at 0.3 uM after 24 hrs by propidium iodide/RNase A staining-based flow cytometric analysis (reference value: 11.36%); format: functional
A549 [18] = experiment: Cell cycle arrest in human A549 cells assessed as upregulation of cyclin B1 expression level after 24 hrs by Western blot analysis; format: functional, cell-based
Tubulin (Homo sapiens) [19] = biological target: T1, Tubulin (Homo sapiens); experiment: Induction of microtubule disruption in human A549 cells assessed as cell contraction at 0.2 uM after 24 hrs by rhodamine and DAPI staining based immunofluorescence microscopic analysis
A549 [20] = experiment: Induction of microtubule disruption in human A549 cells assessed as spindle microtubule disorganization accompanied by misaligned chromosomes from metaphase plate at 0.5 uM after 24 hrs by rhodamine and DAPI staining based immunofluorescence microscopic analysis; format: functional, cell-based
A549 [21] = experiment: Induction of apoptosis in human A549 cells assessed as late apoptotic cells at 0.1 uM after 24 hrs by Annexin V-FITC/propidium iodide staining-based flow cytometric analysis (reference value: 3.55%); format: functional
A549 [22] = experiment: Cell cycle arrest in human A549 cells assessed as downregulation of cdc25c expression level after 24 hrs by Western blot analysis; format: functional, cell-based
A549 [23] = experiment: Induction of apoptosis in human A549 cells assessed as necrotic cells at 0.1 uM after 24 hrs by Annexin V-FITC/propidium iodide staining-based flow cytometric analysis (reference value: 10.8%); format: functional
A549 [24] = experiment: Cell cycle arrest in human A549 cells assessed as accumulation at S phase at 0.1 uM after 24 hrs by propidium iodide/RNase A staining-based flow cytometric analysis (reference value: 11.36%); format: functional
[25] = Toxicity in mouse xenografted with rat H22 cells assessed as weight loss at 3 mg/kg, ip measured after 28 days; format: organism-based; conditions: in vivo, 672 h
A549 [26] = experiment: Induction of apoptosis in human A549 cells assessed as early apoptotic cells at 0.1 uM after 24 hrs by Annexin V-FITC/propidium iodide staining-based flow cytometric analysis (reference value: 2.81%); format: functional
A549 [27] = experiment: Induction of apoptosis in human A549 cells assessed as early apoptotic cells at 0.3 uM after 24 hrs by Annexin V-FITC/propidium iodide staining-based flow cytometric analysis (reference value: 2.81%); format: functional
A549 [28] = experiment: Cell cycle arrest in human A549 cells assessed as accumulation at G2/M phase at 0.3 uM after 24 hrs by propidium iodide/RNase A staining-based flow cytometric analysis (reference value: 17.62%); format: functional
[29] = Cytotoxicity against mouse primary hepatocytes after 24 hrs by MTT assay; format: cell-based, Hepatocyte
A549 [30] = experiment: Cell cycle arrest in human A549 cells assessed as accumulation at S phase at 0.5 uM after 24 hrs by propidium iodide/RNase A staining-based flow cytometric analysis (reference value: 11.36%); format: functional
Rattus norvegicus = experiment: Antitumor activity against rat hepatoma H22 cells implanted in mouse assessed as reduction in tumor volume at 3 mg/kg, ip measured after 8 to 28 days; format: functional, organism-based
A549 [31] = experiment: Induction of apoptosis in human A549 cells assessed as late apoptotic cells at 0.3 uM after 24 hrs by Annexin V-FITC/propidium iodide staining-based flow cytometric analysis (reference value: 3.55%); format: functional
A549 [32] = experiment: Cell cycle arrest in human A549 cells assessed as accumulation at G1 phase at 0.5 uM after 24 hrs by propidium iodide/RNase A staining-based flow cytometric analysis (reference value: 71.02%); format: functional
A549 [33] = experiment: Cell cycle arrest in human A549 cells assessed as downregulation of Cdc2 expression level after 24 hrs by Western blot analysis; format: functional, cell-based
A549 [34] = experiment: Induction of apoptosis in human A549 cells assessed as late apoptotic cells at 0.5 uM after 24 hrs by Annexin V-FITC/propidium iodide staining-based flow cytometric analysis (reference value: 3.55%); format: functional
A549 [35] = experiment: Induction of apoptosis in human A549 cells assessed as necrotic cells at 0.3 uM after 24 hrs by Annexin V-FITC/propidium iodide staining-based flow cytometric analysis (reference value: 10.8%); format: functional
A549 [36] = experiment: Cell cycle arrest in human A549 cells assessed as accumulation at G2/M phase at 0.1 uM after 24 hrs by propidium iodide/RNase A staining-based flow cytometric analysis (reference value: 17.62%); format: functional
A549 [37] = experiment: Induction of apoptosis in human A549 cells assessed as early apoptotic cells at 0.5 uM after 24 hrs by Annexin V-FITC/propidium iodide staining-based flow cytometric analysis (reference value: 2.81%); format: functional
A549 [38] = experiment: Induction of apoptosis in human A549 cells assessed as viable cells at 0.5 uM after 24 hrs by Annexin V-FITC/propidium iodide staining-based flow cytometric analysis (reference value: 82.8%); format: functional; conditions: A549, 24 h, read-out: Activity
Tubulin (Bos taurus) [39] = biological target: T2, Tubulin (Bos taurus); experiment: Inhibition of vinblastine binding to bovine brain tubulin at 5 uM

Structure (SMILES): Cc1ccc(C)c(S(=O)(=O)n2c(-c3cn(-c4ccccc4)nc3-c3ccc(C(F)(F)F)cc3)nc3ccccc32)c1
- IC50 (MCF7): 170 nM
- Activity (A549 [1]): Dose-dependent effect
- Activity (A549 [2]): 62.95%
- IC50 (A549 [3]): 150 nM
- Activity (Tubulin (Homo sapiens) [4]): Active
- Activity (A549 [5]): 53.31%
- viability at 0.3 µM (A549 [6]): 71%
- CC50 at 24 h [7]: 223000 nM
- Activity (A549 [8]): Active
- Activity (A549 [9]): 18.2%
- Activity (A549 [10]): Active
- Activity (A549 [11]): 40.26%
- Activity (A549 [12]): Active
- IC50 (HepG2): 330 nM
- Activity (A549 [13]): Active
- inhibition (Tubulin (Bos taurus) [14]): 91%
- viability at 0.1 µM (A549 [15]): 78.6%
- IC50 (HeLa): 210 nM
- Activity (A549 [16]): Dose-dependent effect
- Activity (A549 [17]): 18.56%
- Activity (A549 [18]): Dose-dependent effect
- Activity (Tubulin (Homo sapiens) [19]): Active
- Activity (A549 [20]): Active
- Activity (A549 [21]): 4.9%
- Activity (A549 [22]): Dose-dependent effect
- Activity (A549 [23]): 13.4%
- Activity (A549 [24]): 14.42%
- Activity [25]: Non-Toxic
- Activity (A549 [26]): 3.08%
- Activity (A549 [27]): 6.69%
- Activity (A549 [28]): 28.13%
- CC50 at 24 h [29]: 132000 nM
- Activity (A549 [30]): 12.11%
- Activity (Rattus norvegicus): Active
- Activity (A549 [31]): 5.95%
- Activity (A549 [32]): 47.63%
- Activity (A549 [33]): Dose-dependent effect
- Activity (A549 [34]): 8.74%
- Activity (A549 [35]): 16.3%
- Activity (A549 [36]): 22.63%
- Activity (A549 [37]): 10.1%
- viability at 0.5 µM (A549 [38]): 62.9%
- inhibition (Tubulin (Bos taurus) [39]): 0.06%
